Test results taken from patent publication US5556859A, “N-(4-pyrimidinyl)amide pesticides” (DowElanco, priority 1994, dated 1996).

Test system: tobacco budworm (Heliothis virescens)
Experiment: Activity against tobacco budworm (TBW)
Assay type: in vivo
Settings: 144 h, read-out: percent mortality, TBW
Experimental: In conducting evaluations of insecticidal activity, each test compound was formulated as a 400 ppm solution, and this solution was then diluted with water to give lesser concentrations. The 400 ppm solution was prepared by combining 19.2 mL of 0.05% solution of Tween 20 (polyoxyethylene (20) sorbitan monolaurate) in water with a solution of 8 mg of the compound in 0.8 mL of acetone/EtOH (9/1).
Activity against tobacco budworm (Heliothis virescens) was evaluated as follows. A general purpose lepidoptera artificial diet was diluted to half strength with a 5% non nutritive agar. 8 mL of this diet material was dispensed into each one ounce diet cup. One hour prior to treatment 18 to 20 eggs were dispensed onto the diet surface. The cups were then sprayed with formulated material through a flat-fan nozzle. The test was run using concentrations of 400 ppm and 50 ppm. Treated cups were air dried prior to sealing with plastic caps. The cups were held for 6 days at room temperature. Activity was then rated based on the total number of live and dead larvae, and on the size of live larvae.

Compound	mortality at 400 ppm [%]
CC(C)c1nccc(NC(=O)Cc2ccc(Oc3ccc(C(F)(F)F)cc3)cc2)n1 [Compound 72, 4-(4-trifluoromethylphenoxy)phenyl-N-(2-(1-methylethyl)-4-pyrimidinyl)acetamide]	100
CC(C)c1nccc(NC(=O)Cc2ccc(Oc3ccc(F)cc3)cc2)n1 [Compound 31, 4-(4-fluorophenoxy)phenyl-N-(2-(1-methylethyl)-4-pyrimidinyl)acetamide]	100
CCc1nccc(NC(=O)Cc2ccc(Oc3ccccc3)cc2)n1 [Compound 47, 4-phenoxyphenyl-N-(2-ethyl-4-pyrimidinyl)acetamide]	40
CC(C)(C)c1nccc(NC(=O)Cc2ccc(OCC(F)(F)F)cc2)n1 [Compound 24, 4-(2,2,2-trifluroethoxy)phenyl-N-(2-(1,1-dimethylethyl)-4-pyrimidinyl)acetamide]	100
CCc1nccc(NC(=O)Cc2ccc(OCC(F)(F)F)cn2)n1 [Compound 35, 5-(2,2,2-trifluoromethoxy)-2-pyridinyl-N-(2-ethyl-4-pyrimidinyl)acetamide]	60
CCc1nccc(NC(=O)Cc2ccc(C(C)(C)C)cc2)n1 [Compound 48, 4-(1,1-dimethylethyl)phenyl-N-(2-ethyl-4-pyrimidinyl)acetamide]	20
O=C(Cc1ccc(OCC(F)(F)F)cc1)Nc1ccnc(C2CCC2)n1 [Compound 22, 4-(2,2,2-trifluroethoxy)phenyl-N-(2-cyclobutyl-4-pyrimidinyl)acetamide]	0
CCc1nccc(NC(=O)COc2ccc(C(C)C)cc2)n1 [Compound 46, 4-(1-methylethyl)phenoxy-N-(2-ethyl-4-pyrimidinyl)acetamide]	0
CCc1nccc(NC(=O)Cc2ccc3ccccc3c2)n1 [Compound 50, 2-naphthyl-N-(2-ethyl-4-pyrimidinyl)acetamide]	40
CCc1nccc(NC(=O)Cc2ccc(Oc3ccc(S(C)(=O)=O)cn3)cc2)n1 [Compound 36, 4-(5-methylsulfonyl-2-pyridinyloxy)phenyl-N-(2-ethyl-4-pyrimidinyl)acetamide]	100
CCc1nccc(NC(=O)Cc2ccc(Oc3ccc(Cl)cc3)cc2)n1 [Compound 17, 4-(4-chlorophenoxy)phenyl-N-(2-ethyl-4-pyrimidinyl)acetamide]	100
CCc1nccc(NC(=O)Cc2ccc(C(C)C)cc2)n1 [Compound 45, 4-(1-methylethyl)phenyl-N-(2-ethyl-4-pyrimidinyl)acetamide]	0

Test system: beet armyworm (Spodoptera exiqua)
Experiment: whole plant or invertebrate
Settings: 144 h, read-out: percent mortality, BAW

Compound	mortality at 400 ppm [%]
CC(C)c1nccc(NC(=O)Cc2ccc(Oc3ccc(C(F)(F)F)cc3)cc2)n1 [Compound 72, 4-(4-trifluoromethylphenoxy)phenyl-N-(2-(1-methylethyl)-4-pyrimidinyl)acetamide]	0
CC(C)c1nccc(NC(=O)Cc2ccc(Oc3ccc(F)cc3)cc2)n1 [Compound 31, 4-(4-fluorophenoxy)phenyl-N-(2-(1-methylethyl)-4-pyrimidinyl)acetamide]	100
CCc1nccc(NC(=O)Cc2ccc(Oc3ccccc3)cc2)n1 [Compound 47, 4-phenoxyphenyl-N-(2-ethyl-4-pyrimidinyl)acetamide]	100
CC(C)(C)c1nccc(NC(=O)Cc2ccc(OCC(F)(F)F)cc2)n1 [Compound 24, 4-(2,2,2-trifluroethoxy)phenyl-N-(2-(1,1-dimethylethyl)-4-pyrimidinyl)acetamide]	100
CCc1nccc(NC(=O)Cc2ccc(OCC(F)(F)F)cn2)n1 [Compound 35, 5-(2,2,2-trifluoromethoxy)-2-pyridinyl-N-(2-ethyl-4-pyrimidinyl)acetamide]	100
CCc1nccc(NC(=O)Cc2ccc(C(C)(C)C)cc2)n1 [Compound 48, 4-(1,1-dimethylethyl)phenyl-N-(2-ethyl-4-pyrimidinyl)acetamide]	0
O=C(Cc1ccc(OCC(F)(F)F)cc1)Nc1ccnc(C2CCC2)n1 [Compound 22, 4-(2,2,2-trifluroethoxy)phenyl-N-(2-cyclobutyl-4-pyrimidinyl)acetamide]	100
CCc1nccc(NC(=O)COc2ccc(C(C)C)cc2)n1 [Compound 46, 4-(1-methylethyl)phenoxy-N-(2-ethyl-4-pyrimidinyl)acetamide]	0
CCc1nccc(NC(=O)Cc2ccc3ccccc3c2)n1 [Compound 50, 2-naphthyl-N-(2-ethyl-4-pyrimidinyl)acetamide]	60
CCc1nccc(NC(=O)Cc2ccc(Oc3ccc(S(C)(=O)=O)cn3)cc2)n1 [Compound 36, 4-(5-methylsulfonyl-2-pyridinyloxy)phenyl-N-(2-ethyl-4-pyrimidinyl)acetamide]	100
CCc1nccc(NC(=O)Cc2ccc(Oc3ccc(Cl)cc3)cc2)n1 [Compound 17, 4-(4-chlorophenoxy)phenyl-N-(2-ethyl-4-pyrimidinyl)acetamide]	100
CCc1nccc(NC(=O)Cc2ccc(C(C)C)cc2)n1 [Compound 45, 4-(1-methylethyl)phenyl-N-(2-ethyl-4-pyrimidinyl)acetamide]	100

Test system: cotton aphid (Aphis gossypii)
Experiment: whole plant or invertebrate
Settings: 72 h, read-out: percent mortality, CA

Compound	mortality at 400 ppm [%]
CC(C)c1nccc(NC(=O)Cc2ccc(Oc3ccc(C(F)(F)F)cc3)cc2)n1 [Compound 72, 4-(4-trifluoromethylphenoxy)phenyl-N-(2-(1-methylethyl)-4-pyrimidinyl)acetamide]	100
CC(C)c1nccc(NC(=O)Cc2ccc(Oc3ccc(F)cc3)cc2)n1 [Compound 31, 4-(4-fluorophenoxy)phenyl-N-(2-(1-methylethyl)-4-pyrimidinyl)acetamide]	100
CCc1nccc(NC(=O)Cc2ccc(Oc3ccccc3)cc2)n1 [Compound 47, 4-phenoxyphenyl-N-(2-ethyl-4-pyrimidinyl)acetamide]	100
CC(C)(C)c1nccc(NC(=O)Cc2ccc(OCC(F)(F)F)cc2)n1 [Compound 24, 4-(2,2,2-trifluroethoxy)phenyl-N-(2-(1,1-dimethylethyl)-4-pyrimidinyl)acetamide]	90
CCc1nccc(NC(=O)Cc2ccc(OCC(F)(F)F)cn2)n1 [Compound 35, 5-(2,2,2-trifluoromethoxy)-2-pyridinyl-N-(2-ethyl-4-pyrimidinyl)acetamide]	100
CCc1nccc(NC(=O)Cc2ccc(C(C)(C)C)cc2)n1 [Compound 48, 4-(1,1-dimethylethyl)phenyl-N-(2-ethyl-4-pyrimidinyl)acetamide]	100
O=C(Cc1ccc(OCC(F)(F)F)cc1)Nc1ccnc(C2CCC2)n1 [Compound 22, 4-(2,2,2-trifluroethoxy)phenyl-N-(2-cyclobutyl-4-pyrimidinyl)acetamide]	100
CCc1nccc(NC(=O)COc2ccc(C(C)C)cc2)n1 [Compound 46, 4-(1-methylethyl)phenoxy-N-(2-ethyl-4-pyrimidinyl)acetamide]	0
CCc1nccc(NC(=O)Cc2ccc3ccccc3c2)n1 [Compound 50, 2-naphthyl-N-(2-ethyl-4-pyrimidinyl)acetamide]	100
CCc1nccc(NC(=O)Cc2ccc(Oc3ccc(S(C)(=O)=O)cn3)cc2)n1 [Compound 36, 4-(5-methylsulfonyl-2-pyridinyloxy)phenyl-N-(2-ethyl-4-pyrimidinyl)acetamide]	40
CCc1nccc(NC(=O)Cc2ccc(Oc3ccc(Cl)cc3)cc2)n1 [Compound 17, 4-(4-chlorophenoxy)phenyl-N-(2-ethyl-4-pyrimidinyl)acetamide]	100
CCc1nccc(NC(=O)Cc2ccc(C(C)C)cc2)n1 [Compound 45, 4-(1-methylethyl)phenyl-N-(2-ethyl-4-pyrimidinyl)acetamide]	100

Test system: peanut root knot nematode (Meloidogyne arenaria)
Experiment: whole plant or invertebrate
Settings: in Arachis hypogaea, read-out: percent mortality, RKN

Compound	mortality at 400 ppm [%]
CC(C)c1nccc(NC(=O)Cc2ccc(Oc3ccc(C(F)(F)F)cc3)cc2)n1 [Compound 72, 4-(4-trifluoromethylphenoxy)phenyl-N-(2-(1-methylethyl)-4-pyrimidinyl)acetamide]	100
CC(C)c1nccc(NC(=O)Cc2ccc(Oc3ccc(F)cc3)cc2)n1 [Compound 31, 4-(4-fluorophenoxy)phenyl-N-(2-(1-methylethyl)-4-pyrimidinyl)acetamide]	0
CC(C)(C)c1nccc(NC(=O)Cc2ccc(OCC(F)(F)F)cc2)n1 [Compound 24, 4-(2,2,2-trifluroethoxy)phenyl-N-(2-(1,1-dimethylethyl)-4-pyrimidinyl)acetamide]	0
CCc1nccc(NC(=O)Cc2ccc(OCC(F)(F)F)cn2)n1 [Compound 35, 5-(2,2,2-trifluoromethoxy)-2-pyridinyl-N-(2-ethyl-4-pyrimidinyl)acetamide]	100
O=C(Cc1ccc(OCC(F)(F)F)cc1)Nc1ccnc(C2CCC2)n1 [Compound 22, 4-(2,2,2-trifluroethoxy)phenyl-N-(2-cyclobutyl-4-pyrimidinyl)acetamide]	100
CCc1nccc(NC(=O)Cc2ccc(Oc3ccc(S(C)(=O)=O)cn3)cc2)n1 [Compound 36, 4-(5-methylsulfonyl-2-pyridinyloxy)phenyl-N-(2-ethyl-4-pyrimidinyl)acetamide]	100
CCc1nccc(NC(=O)Cc2ccc(Oc3ccc(Cl)cc3)cc2)n1 [Compound 17, 4-(4-chlorophenoxy)phenyl-N-(2-ethyl-4-pyrimidinyl)acetamide]	100

Test system: Southern corn rootworm (Diabrotica undecimpuctata howardi Barber)
Experiment: whole plant or invertebrate
Settings: in Zea mays, soil, read-out: percent mortality, SCRW

Compound	mortality at 24 µg/g [%]
CC(C)c1nccc(NC(=O)Cc2ccc(Oc3ccc(C(F)(F)F)cc3)cc2)n1 [Compound 72, 4-(4-trifluoromethylphenoxy)phenyl-N-(2-(1-methylethyl)-4-pyrimidinyl)acetamide]	100
CC(C)c1nccc(NC(=O)Cc2ccc(Oc3ccc(F)cc3)cc2)n1 [Compound 31, 4-(4-fluorophenoxy)phenyl-N-(2-(1-methylethyl)-4-pyrimidinyl)acetamide]	0
CC(C)(C)c1nccc(NC(=O)Cc2ccc(OCC(F)(F)F)cc2)n1 [Compound 24, 4-(2,2,2-trifluroethoxy)phenyl-N-(2-(1,1-dimethylethyl)-4-pyrimidinyl)acetamide]	100
CCc1nccc(NC(=O)Cc2ccc(OCC(F)(F)F)cn2)n1 [Compound 35, 5-(2,2,2-trifluoromethoxy)-2-pyridinyl-N-(2-ethyl-4-pyrimidinyl)acetamide]	100
O=C(Cc1ccc(OCC(F)(F)F)cc1)Nc1ccnc(C2CCC2)n1 [Compound 22, 4-(2,2,2-trifluroethoxy)phenyl-N-(2-cyclobutyl-4-pyrimidinyl)acetamide]	100
CCc1nccc(NC(=O)Cc2ccc(Oc3ccc(S(C)(=O)=O)cn3)cc2)n1 [Compound 36, 4-(5-methylsulfonyl-2-pyridinyloxy)phenyl-N-(2-ethyl-4-pyrimidinyl)acetamide]	0
CCc1nccc(NC(=O)Cc2ccc(Oc3ccc(Cl)cc3)cc2)n1 [Compound 17, 4-(4-chlorophenoxy)phenyl-N-(2-ethyl-4-pyrimidinyl)acetamide]	100

Test system: two spotted spider mite (Tetranychus urticae)
Experiment: whole plant or invertebrate
Settings: 72 h, read-out: percent mortality, TSSM

Compound	mortality at 400 ppm [%]
CC(C)c1nccc(NC(=O)Cc2ccc(Oc3ccc(C(F)(F)F)cc3)cc2)n1 [Compound 72, 4-(4-trifluoromethylphenoxy)phenyl-N-(2-(1-methylethyl)-4-pyrimidinyl)acetamide]	100
CC(C)c1nccc(NC(=O)Cc2ccc(Oc3ccc(F)cc3)cc2)n1 [Compound 31, 4-(4-fluorophenoxy)phenyl-N-(2-(1-methylethyl)-4-pyrimidinyl)acetamide]	100
CCc1nccc(NC(=O)Cc2ccc(Oc3ccccc3)cc2)n1 [Compound 47, 4-phenoxyphenyl-N-(2-ethyl-4-pyrimidinyl)acetamide]	100
CC(C)(C)c1nccc(NC(=O)Cc2ccc(OCC(F)(F)F)cc2)n1 [Compound 24, 4-(2,2,2-trifluroethoxy)phenyl-N-(2-(1,1-dimethylethyl)-4-pyrimidinyl)acetamide]	60
CCc1nccc(NC(=O)Cc2ccc(OCC(F)(F)F)cn2)n1 [Compound 35, 5-(2,2,2-trifluoromethoxy)-2-pyridinyl-N-(2-ethyl-4-pyrimidinyl)acetamide]	100
CCc1nccc(NC(=O)Cc2ccc(C(C)(C)C)cc2)n1 [Compound 48, 4-(1,1-dimethylethyl)phenyl-N-(2-ethyl-4-pyrimidinyl)acetamide]	100
O=C(Cc1ccc(OCC(F)(F)F)cc1)Nc1ccnc(C2CCC2)n1 [Compound 22, 4-(2,2,2-trifluroethoxy)phenyl-N-(2-cyclobutyl-4-pyrimidinyl)acetamide]	100
CCc1nccc(NC(=O)COc2ccc(C(C)C)cc2)n1 [Compound 46, 4-(1-methylethyl)phenoxy-N-(2-ethyl-4-pyrimidinyl)acetamide]	0
CCc1nccc(NC(=O)Cc2ccc3ccccc3c2)n1 [Compound 50, 2-naphthyl-N-(2-ethyl-4-pyrimidinyl)acetamide]	100
CCc1nccc(NC(=O)Cc2ccc(Oc3ccc(S(C)(=O)=O)cn3)cc2)n1 [Compound 36, 4-(5-methylsulfonyl-2-pyridinyloxy)phenyl-N-(2-ethyl-4-pyrimidinyl)acetamide]	0
CCc1nccc(NC(=O)Cc2ccc(Oc3ccc(Cl)cc3)cc2)n1 [Compound 17, 4-(4-chlorophenoxy)phenyl-N-(2-ethyl-4-pyrimidinyl)acetamide]	100
CCc1nccc(NC(=O)Cc2ccc(C(C)C)cc2)n1 [Compound 45, 4-(1-methylethyl)phenyl-N-(2-ethyl-4-pyrimidinyl)acetamide]	100

Test system: German cockroach (Blattella germanicus)
Experiment: whole plant or invertebrate
Settings: 240 h, read-out: percent mortality, GECR

Compound	mortality at 400 ppm [%]
CC(C)c1nccc(NC(=O)Cc2ccc(Oc3ccc(C(F)(F)F)cc3)cc2)n1 [Compound 72, 4-(4-trifluoromethylphenoxy)phenyl-N-(2-(1-methylethyl)-4-pyrimidinyl)acetamide]	100
CC(C)c1nccc(NC(=O)Cc2ccc(Oc3ccc(F)cc3)cc2)n1 [Compound 31, 4-(4-fluorophenoxy)phenyl-N-(2-(1-methylethyl)-4-pyrimidinyl)acetamide]	100
CC(C)(C)c1nccc(NC(=O)Cc2ccc(OCC(F)(F)F)cc2)n1 [Compound 24, 4-(2,2,2-trifluroethoxy)phenyl-N-(2-(1,1-dimethylethyl)-4-pyrimidinyl)acetamide]	0
CCc1nccc(NC(=O)Cc2ccc(OCC(F)(F)F)cn2)n1 [Compound 35, 5-(2,2,2-trifluoromethoxy)-2-pyridinyl-N-(2-ethyl-4-pyrimidinyl)acetamide]	80
O=C(Cc1ccc(OCC(F)(F)F)cc1)Nc1ccnc(C2CCC2)n1 [Compound 22, 4-(2,2,2-trifluroethoxy)phenyl-N-(2-cyclobutyl-4-pyrimidinyl)acetamide]	80
CCc1nccc(NC(=O)Cc2ccc(Oc3ccc(S(C)(=O)=O)cn3)cc2)n1 [Compound 36, 4-(5-methylsulfonyl-2-pyridinyloxy)phenyl-N-(2-ethyl-4-pyrimidinyl)acetamide]	40
CCc1nccc(NC(=O)Cc2ccc(Oc3ccc(Cl)cc3)cc2)n1 [Compound 17, 4-(4-chlorophenoxy)phenyl-N-(2-ethyl-4-pyrimidinyl)acetamide]	100
